We go through 19 compounds from patent publication US20120201749A1, “NP-1 Antagonists and Their Therapeutic Use” (priority 2009, published 2012).

This experiment deals with NP-1 (Homo sapiens, UniProt O14786). The experiment is described as follows: Biotinylated-VEGF-A165 (bt-VEGF-A165) binding to NP-1. To be noted: for inhibition at 3 µM: read-out: Screen (% inhibition at 3 μM); for inhibition at 30 µM: read-out: Screen (% inhibition at 30 μM). As to the method: Human prostate carcinoma DU145 cells were cultured in growth medium (RPMI 1640 containing 10% FBS and L-glutamine). DU145 cells were seeded at the density of 2×10^4 cells per well (96-well plates) in 0.1 ml growth medium and transfected with adenovirus vectors containing the full-length open-reading frame of human NP-1. The Ad.NP-1-transfected cells grew for 2 days prior to a binding assay.
Confluent Ad.NP-1-transfected cells in 96-well plates were washed twice with phosphate-buffered saline (PBS). The various concentrations of compounds diluted in binding medium (Dulbecco's modified Eagle's medium, 25 mM HEPES pH 7.3 containing 0.1% BSA) were added, followed by addition of 2 nM of bt-VEGF-A165. After 2 h of incubation at room temperature, the medium was aspirated and washed three times with PBS. The bound bt-VEGF-A165 to NP-1 was detected by streptavidin-horseradish peroxidase conjugates and the enzyme substrate, and measured using a Tecan Genios plate reader at A450 nm with a reference wavelength at A595 nm. Non-specific binding was determined in the presence of 100-fold excess unlabelled VEGF-A165.
The 96-well plates were pre-coated with NP1 protein at 3 μg/ml overnight at 4° C. On the following day, the plates were treated with blocking buffer (PBS containing 1% BSA) and washed three times with wash buffer (PBS containing 0.1% Tween-20). The various concentrations of compounds diluted in PBS containing 1% DMSO were added, followed by addition of 0.25 nM of bt-VEGF-A165. After 2 h of incubation at room temperature, the plates were washed three times with wash buffer. The bound bt-VEGF-A165 to NP-1 was detected by streptavidin-horseradish peroxidase conjugates and the enzyme substrate, and measured using a Tecan Genios plate reader at A450 nm with a reference wavelength at A595 nm. Nonspecific binding was determined in the absence of NP-1 coated wells of the plates.

Chain of NP-1 (O14786 22-923): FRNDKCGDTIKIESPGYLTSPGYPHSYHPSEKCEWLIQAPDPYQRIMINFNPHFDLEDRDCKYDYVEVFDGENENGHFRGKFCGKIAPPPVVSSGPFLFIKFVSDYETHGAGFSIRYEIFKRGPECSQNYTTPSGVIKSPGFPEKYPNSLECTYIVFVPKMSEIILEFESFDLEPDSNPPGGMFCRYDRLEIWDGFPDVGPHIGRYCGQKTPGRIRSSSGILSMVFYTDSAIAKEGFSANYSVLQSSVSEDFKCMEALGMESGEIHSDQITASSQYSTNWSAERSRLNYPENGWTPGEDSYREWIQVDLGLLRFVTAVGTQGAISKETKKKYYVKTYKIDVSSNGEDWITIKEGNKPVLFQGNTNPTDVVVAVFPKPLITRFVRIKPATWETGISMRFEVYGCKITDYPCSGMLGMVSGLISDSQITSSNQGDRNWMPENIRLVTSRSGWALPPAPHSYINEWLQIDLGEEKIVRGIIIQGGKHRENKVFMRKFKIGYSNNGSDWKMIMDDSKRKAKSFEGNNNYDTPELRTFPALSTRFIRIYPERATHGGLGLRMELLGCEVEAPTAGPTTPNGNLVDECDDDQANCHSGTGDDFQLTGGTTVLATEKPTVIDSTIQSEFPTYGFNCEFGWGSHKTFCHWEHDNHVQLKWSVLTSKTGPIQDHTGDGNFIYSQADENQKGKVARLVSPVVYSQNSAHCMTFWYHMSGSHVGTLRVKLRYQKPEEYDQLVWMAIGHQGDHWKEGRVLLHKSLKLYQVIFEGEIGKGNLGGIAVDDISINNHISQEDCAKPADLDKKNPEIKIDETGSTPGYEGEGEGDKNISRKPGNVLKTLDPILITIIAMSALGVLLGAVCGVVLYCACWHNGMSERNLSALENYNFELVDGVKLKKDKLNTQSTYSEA

In turn, `N=C(N)NCCC[C@H](NC(=O)c1sccc1NS(=O)(=O)c1cc(-c2cccc(CNCc3ncc[nH]3)c2)cc2c1OCC2)C(=O)O` [Compound 37] returned a 50% inhibitory concentration (IC50) of 637 nM. Also, under “3 μM compound”, the inhibition at 3 µM amounted to 68%. Also, for the setting “30 μM compound”, the inhibition at 30 µM worked out at 90%.
With `N=C(N)NCCC[C@H](NC(=O)c1sccc1NS(=O)(=O)c1cc(-c2cccc(CN3CCC(N4CCOCC4)CC3)c2)cc2c1OCC2)C(=O)O` [Compound 38, (S)-5-Guanidino-2-[(3-{5-[3-(4-morpholin-4-yl-piperidin-1-ylmethyl)-phenyl]-2,3-dihydro-benzofuran-7-sulfonylamino}-thiophene-2-carbonyl)-amino]-pentanoic acid], the IC50 is 295 nM. Moreover, where the note is “3 μM compound, 3 µM”, the “Screen (% inhibition at 3 μM)” value was determined as 68%. Moreover, the “Screen (% inhibition at 30 μM)” value (30 μM compound, 30 µM) amounted to 93%.
On to `N=C(N)NCCC[C@H](NC(=O)c1sccc1NS(=O)(=O)c1cc(-c2ccccc2CNCc2ccc(N)nc2)cc2c1OCC2)C(=O)O` [Compound 39, (S)-2-({3-[5-(2-{[(6-Amino-pyridin-3-ylmethyl)-amino]-methyl}-phenyl)-2,3-dihydro-benzofuran-7-sulfonylamino]-thiophene-2-carbonyl}-amino)-5-guanidino-pentanoic acid], for which the inhibition at 3 µM (3 μM compound) was found to be 61%.
Same read-out and setting: the result for `N=C(N)NCCC[C@H](NC(=O)c1sccc1NS(=O)(=O)c1cc(-c2cccc(CNCc3ccc(N)nc3)c2)cc2c1OCC2)C(=O)O` [Compound 40, (S)-2-({3-[5-(3-{[(6-Amino-pyridin-3-ylmethyl)-amino]-methyl}-phenyl)-2,3-dihydro-benzofuran-7sulfonylamino]-thiophene-2-carbonyl}-amino)-5-guanidino-pentanoic acid] reads 56%.
Still for that read-out and setting: next, `Cc1[nH]ncc1CCCNCc1cccc(-c2cc3c(c(S(=O)(=O)Nc4ccsc4C(=O)N[C@@H](CCCNC(=N)N)C(=O)O)c2)OCC3)c1` [Compound 41, (S)-5-Guanidino-2-({3-[5-(3-{[3-(5-methyl-1H-pyrazol-4-yl)-propylamino]-methyl}-phenyl)-2,3-dihydro-benzofuran-7-sulfonylamino]-thiophene-2-carbonyl}-amino)-pentanoic acid]: 52%; `N=C(N)NCCC[C@H](NC(=O)c1sccc1NS(=O)(=O)c1cc(-c2cccc(CNCCc3cn[nH]c3)c2)cc2c1OCC2)C(=O)O` [Compound 42, (S)-5-Guanidino-2-({3-[5-(3-{[2-(1H-pyrazol-4-yl)-ethylamino]-methyl}-phenyl)-2,3-dihydro-benzofuran-7-sulfonylamino]-thiophene-2-carbonyl}-amino)-pentanoic acid]: 78%; `N=C(N)NCCC[C@H](NC(=O)c1sccc1NS(=O)(=O)c1cc(-c2cccc(CNCc3ccc(O)nc3)c2)cc2c1OCC2)C(=O)O` [Compound 43, (S)-5-Guanidino-2-({3-[5-(3-{[(6-hydroxy-pyridin-3-ylmethyl)-amino]-methyl}-phenyl)-2,3-dihydro-benzofuran-7-sulfonylamino]-thiophene-2-carbonyl}-amino)-pentanoic acid]: 82%.
The same measure, in the same setting: the result for `Cc1ccc(NCCCNCc2cccc(-c3cc4c(c(S(=O)(=O)Nc5ccsc5C(=O)N[C@@H](CCCNC(=N)N)C(=O)O)c3)OCC4)c2)nc1` [Compound 44, (S)-5-Guanidino-2-({3-[5-(3-{[3-(5-methyl-pyridin-2-ylamino)-propylamino]-methyl}-phenyl)-2,3-dihydro-benzofuran-7-sulfonylamino]-thiophene-2-carbonyl}-amino)-pentanoic acid] reads 78%; that for `Cc1ccnc(NCCNCc2cccc(-c3cc4c(c(S(=O)(=O)Nc5ccsc5C(=O)N[C@@H](CCCNC(=N)N)C(=O)O)c3)OCC4)c2)c1` [Compound 45, (S)-5-Guanidino-2-({3-[5-(3-{[2-(4-methyl-pyridin-2-ylamino)-ethylamino]-methyl}-phenyl)-2,3-dihydro-benzofuran-7-sulfonylamino]-thiophene-2-carbonyl}-amino)-pentanoic acid], 81%.
Take `Cc1[nH]ncc1CCCNCc1ccccc1-c1cc2c(c(S(=O)(=O)Nc3ccsc3C(=O)N[C@@H](CCCNC(=N)N)C(=O)O)c1)OCC2` [Compound 46, (S)-5-Guanidino-2-({3-[5-(2-{[3-(5-methyl-1H-pyrazol-4-yl)-propylamino]-methyl}-phenyl)-2,3-dihydro-benzofuran-7-sulfonylamino]-thiophene-2-carbonyl}-amino)-pentanoic acid]: the inhibition at 3 µM (3 μM compound) worked out at 65%.
In turn, `N=C(N)NCCC[C@H](NC(=O)c1sccc1NS(=O)(=O)c1cc(-c2ccccc2CNCCc2cn[nH]c2)cc2c1OCC2)C(=O)O` [Compound 47, (S)-5-Guanidino-2-({3-[5-(2-{[2-(1H-pyrazol-4-yl)-ethylamino]-methyl}-phenyl)-2,3-dihydro-benzofuran-7-sulfonylamino]-thiophene-2-carbonyl}-amino)-pentanoic acid] yielded a 50% inhibitory concentration (IC50) of 130 nM. Further, the inhibition at 3 µM (3 μM compound) came out at 86%.
`Cc1cc(CNCc2cccc(-c3cc4c(c(S(=O)(=O)Nc5ccsc5C(=O)N[C@@H](CCCNC(=N)N)C(=O)O)c3)OCC4)c2)no1` [Compound 48, (S)-5-Guanidino-2-({3-[5-(3-{[(5-methyl-isoxazol-3-ylmethyl)-amino]-methyl}-phenyl)-2,3-dihydro-benzofuran-7-sulfonylamino]-thiophene-2-carbonyl}-amino)-pentanoic acid] showed a concentration for half-maximal inhibition (IC50) of 54 nM. In addition, under “3 μM compound”, the inhibition at 3 µM was 86%. Besides, for the setting “30 μM compound”, the inhibition at 30 µM amounted to 99%.
As for `N=C(N)NCCC[C@H](NC(=O)c1sccc1NS(=O)(=O)c1cc(-c2ccccc2CNCc2ccc(O)nc2)cc2c1OCC2)C(=O)O` [Compound 49, (S)-5-Guanidino-2-({3-[5-(2-{[(6-hydroxy-pyridin-3-ylmethyl)-amino]-methyl}-phenyl)-2,3-dihydro-benzofuran-7-sulfonylamino]-thiophene-2-carbonyl}-amino)-pentanoic acid], the inhibition at 3 µM (3 μM compound) amounted to 52%.
As to `Cc1ccc(NCCCNCc2ccccc2-c2cc3c(c(S(=O)(=O)Nc4ccsc4C(=O)N[C@@H](CCCNC(=N)N)C(=O)O)c2)OCC3)nc1` [Compound 50, (S)-5-Guanidino-2-({3-[5-(2-{[3-(5-methyl-pyridin-2-ylamino)-propylamino]-methyl}-phenyl)-2,3-dihydro-benzofuran-7-sulfonylamino]-thiophene-2-carbonyl}-amino)-pentanoic acid], for the setting “3 μM compound”, the inhibition at 3 µM was determined as 82%.
`N=C(N)NCCC[C@H](NC(=O)c1sccc1NS(=O)(=O)c1cc(-c2cccc(CNCc3cn[nH]c3)c2)cc2c1OCC2)C(=O)O` [Compound 51, (S)-5-Guanidino-2-({3-[5-(3-{[(1H-pyrazol-4-ylmethyl)-amino]-methyl}-phenyl)-2,3-dihydro-benzofuran-7-sulfonylamino]-thiophene-2-carbonyl}-amino)-pentanoic acid] showed an IC50 of 740 nM. In addition, the inhibition at 3 µM (3 μM compound) stood at 94%.
Consider `N=C(N)NCCC[C@H](NC(=O)c1sccc1NS(=O)(=O)c1cc(-c2cccc(CNCc3cc[nH]n3)c2)cc2c1OCC2)C(=O)O` [Compound 52, (S)-5-Guanidino-2-({3-[5-(3-{[(1H-pyrazol-3-ylmethyl)-amino]-methyl}-phenyl)-2,3-dihydro-benzofuran-7-sulfonylamino]-thiophene-2-carbonyl}-amino)-pentanoic acid], for which the inhibition at 3 µM (3 μM compound) is 77%.
On the same count and under the same terms, the result for `N=C(N)NCCC[C@H](NC(=O)c1sccc1NS(=O)(=O)c1cc(-c2ccccc2CNCc2cc[nH]n2)cc2c1OCC2)C(=O)O` [Compound 53, (S)-5-Guanidino-2-({3-[5-(2-{[(1H-pyrazol-3-ylmethyl)-amino]-methyl}-phenyl)-2,3-dihydro-benzofuran-7-sulfonylamino]-thiophene-2-carbonyl}-amino)-pentanoic acid] reads 54%; that for `N=C(N)NCCC[C@H](NC(=O)c1sccc1NS(=O)(=O)c1cc(-c2ccccc2CNCc2cn[nH]c2)cc2c1OCC2)C(=O)O` [Compound 54, (S)-5-Guanidino-2-({3-[5-(2-{[(1H-pyrazol-4-ylmethyl)-amino]-methyl}-phenyl)-2,3-dihydro-benzofuran-7-sulfonylamino]-thiophene-2-carbonyl}-amino)-pentanoic acid], 70%.
As for `N=C(N)NCCC[C@H](NC(=O)c1sccc1NS(=O)(=O)c1cc(-c2cccc(CN3CCN(CCO)CC3)c2)cc2c1OCC2)C(=O)O` [Compound 55, (S)-5-Guanidino-2-{[3-(5-{3-[4-(2-hydroxy-ethyl)-piperazin-1-ylmethyl]-phenyl}-2,3-dihydro-benzofuran-7-sulfonylamino)-thiophene-2-carbonyl]-amino}-pentanoic acid], the 50% inhibitory concentration (IC50) is 525 nM. Besides, the inhibition at 3 µM (3 μM compound) worked out at 71%.
